# From patent US20030224026A1, “Dermatological or cosmetic composition which includes aromatic nitroxide compounds and their use” (priority 2002, published 2003)
# Columns and labels:
# [1] = Peroxidation of multilamellar PC liposomes with incorporated nitroxides, induced by Bu^tOOH/Cytochrome C, oxygen consumption; conditions: 22 μM nitroxide incorporated inside 0.77 mM multilamellar liposomes; pH 7.4, 37° C., 5 minutes
# Procedure: The compounds are indicated with the abbreviations: MC4, DC4, TEMPO and TDN as defined for FIG. 2. With reference to FIG. 4, the percentage inhibition of the consumption of oxygen was obtained from measurements carried out on an oxygraph. The system studied consists of multilamellar PC liposomes which have nitroxides incorporated inside them ([…]) in 5 mM phosphate buffer saline, 0.1 mM EDTA, pH 7.4 at 37° C.
# The Applicant carried out an experimental test to evaluate the peroxidation of multilamellar PC liposomes, induced through the Bu^tOOH/Cytochrome C system.
# The liposomes employed in this experimental system contain inside them the antioxidant agents. […] The peroxidation of these liposomes was evaluated by monitoring the consumption of oxygen in a final volume of 1.8 ml and at a constant temperature of 37° C. in 5 mM of phosphate buffer saline, 0.1 mM EDTA, pH 7.4 as previously described.
# The final concentration of the liposomes and of antioxidant agents, in the oxidation chamber, was 0.77 mM and 22 μM respectively. […] The consumption of oxygen was monitored for 5 minutes. For each of the nitroxides tested, the degree of suppression of oxygen consumption was calculated. […]
# [2] = Peroxidation of unilamellar PC liposomes induced by Bu^tOOH/Cytochrome C, oxygen consumption (oxygraph); conditions: for inhibition of oxygen consumption: 5 μM nitroxide added 80 s after onset, 2.4 mM unilamellar PC liposomes, PBS pH 7.4, 37° C., 6 minutes
# Procedure: Oxidation was induced by injecting at point A, 25 μl of Bu^tOOH 7.3 M and injecting at point B 25 μl of cytochrome C (1 mg protein/ml). Point C refers to the addition of 5 μM of the following compounds (if not specified otherwise):
# The compounds are indicated with the following abbreviations: MC4, the compound with formula (I) in which R=C4 alkyl residue; DC4, the compound with formula (I) in which R=(X) and (X) contains R1=C4 methylenic alkyl residue; MC8, the compound with formula (I) in which R=C8 alkyl residue; DC8, the compound with formula (I) in which R=(X) and (X) contains R1=C8 methylenic alkyl residue; TEMPO and TDN. With reference to FIG. 2, the percentage inhibition of the consumption of oxygen in PC unilamellar liposome (2.4 mM) in 5 mM phosphate buffer saline, 0.1 mM EDTA, pH 7.4 at 37° C. to which 5 μM nitroxide compounds was added are reported.
# The Applicant has selected certain nitroxide radicals as antioxidant agents following experimental tests. The antioxidant properties were studied in the laboratory in different biological systems. The systems employed are biological systems which mimic in vivo ones. The biological systems used are subjected to oxidative damage. Oxidative damage was induced in various ways. The Applicant carried out an experimental test to evaluate the peroxidation of unilamellar PC liposomes induced by the use of the Bu^tOOH/Cytochrome C system. […]
# After 80 seconds from the onset of peroxidation, the different nitroxide radicals at final concentration of 5 μM were added. […] The reaction was monitored for 6 minutes. For each nitroxide tested, the extent of inhibition of the consumption of oxygen was calculated. The value of inhibition was calculated in the following way: […]
# Each individual recording is reported in FIG. 1, since the rate of oxygen consumption before the addition of the antioxidant compounds at point C is always constant. From these experiments, the percentage inhibition of oxygen consumption was calculated by subtraction as reported above.
Compound,inhibited peroxidation (percentage of inhibition of oxygen consumption) [1],inhibition of oxygen consumption [2],"protective effects against lipid peroxidation ([2]; higher concentration than 5 μM, same experimental conditions)"
"CC1(C)CCCC(C)(C)N1[O] [TEMPO, 2,2,6,6-tetramethylpiperidine-1-oxyl]",no effect,no protective effects,no protective effects
"bis(2,2,6,6-tetramethylpiperidine-1-oxyl-4-yl)sebacate [TDN]",45%,lower inhibition values with respect to DC4,
